Data from ChEMBL document CHEMBL3045845, “Predicting 3H-1,2,4-triazolinones as angiotensin II receptor antagonists: 2D and 3D QSAR by kNN-molecular field analysis approach” (Med Chem Res, 2012).

Target: T1, Angiotensin II receptor (AT-1) type-1 (Rattus norvegicus, UniProt P29089+P25095)
T1 sequence (P29089 whole entry): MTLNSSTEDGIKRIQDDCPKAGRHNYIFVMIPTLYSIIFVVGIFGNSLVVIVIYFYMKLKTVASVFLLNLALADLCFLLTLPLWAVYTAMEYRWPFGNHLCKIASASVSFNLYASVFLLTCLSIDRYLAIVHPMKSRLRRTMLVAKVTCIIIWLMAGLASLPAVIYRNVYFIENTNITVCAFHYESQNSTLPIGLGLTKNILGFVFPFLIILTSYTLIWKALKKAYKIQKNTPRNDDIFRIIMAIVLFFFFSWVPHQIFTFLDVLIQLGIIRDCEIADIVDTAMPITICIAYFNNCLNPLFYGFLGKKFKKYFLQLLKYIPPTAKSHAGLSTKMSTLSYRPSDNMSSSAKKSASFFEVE
T1 sequence (P25095 whole entry): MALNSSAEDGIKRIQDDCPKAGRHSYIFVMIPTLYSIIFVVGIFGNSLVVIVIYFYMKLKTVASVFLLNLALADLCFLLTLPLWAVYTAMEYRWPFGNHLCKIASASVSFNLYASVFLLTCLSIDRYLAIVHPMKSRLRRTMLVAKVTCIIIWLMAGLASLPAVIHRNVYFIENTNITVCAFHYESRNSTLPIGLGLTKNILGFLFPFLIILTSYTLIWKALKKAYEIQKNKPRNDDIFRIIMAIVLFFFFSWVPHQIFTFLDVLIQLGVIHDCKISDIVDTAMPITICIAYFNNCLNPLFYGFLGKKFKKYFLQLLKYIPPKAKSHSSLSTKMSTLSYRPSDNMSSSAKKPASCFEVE
Assay: Displacement of [125I]-angiotensin 2 from angiotensin AT1 receptor in Rattus norvegicus (rat) uterine membranes

| Structure (SMILES) | IC50 [nM] | pIC50 |
| --- | --- | --- |
| CCCCc1nn(CCCC)c(=O)n1Cc1ccc(-c2ccccc2C(=O)O)cc1 | 101 | 6.996 |
| CCCCc1nn(C(Cc2ccccc2)C(=O)c2ccccc2)c(=O)n1Cc1ccc(-c2ccccc2-c2nn[nH]n2)cc1 (stereo unspecified) | 5800 | 5.237 |
| CCCCc1nn(CC(OCc2ccccc2)c2ccccc2)c(=O)n1Cc1ccc(-c2ccccc2-c2nn[nH]n2)cc1 (stereo unspecified) | 280 | 6.553 |
| CCCCc1nn(CCC2CCCCC2)c(=O)n1Cc1ccc(-c2ccccc2-c2nn[nH]n2)cc1 | 18 | 7.745 |
| CCCCc1nn(CCCCCC(=O)OCC)c(=O)n1Cc1ccc(-c2ccccc2-c2nn[nH]n2)cc1 | 9.8 | 8.009 |
| CCCCc1nn(CC(OC)c2ccccc2)c(=O)n1Cc1ccc(-c2ccccc2-c2nn[nH]n2)cc1 (stereo unspecified) | 12 | 7.921 |
| CCCCc1nn(C(C)(C)C(=O)c2ccccc2)c(=O)n1Cc1ccc(-c2ccccc2-c2nn[nH]n2)cc1 | 43 | 7.367 |
| CCCCc1nn(CC(OCC(=O)O)c2ccccc2)c(=O)n1Cc1ccc(-c2ccccc2-c2nn[nH]n2)cc1 (stereo unspecified) | 30 | 7.523 |
| CCCCc1nn(CC(=O)OCC)c(=O)n1Cc1ccc(-c2ccccc2-c2nn[nH]n2)cc1 | 9 | 8.046 |
| CCCCc1nn(CCCCCC(=O)O)c(=O)n1Cc1ccc(-c2ccccc2-c2nn[nH]n2)cc1 | 17 | 7.77 |
| CCCCc1nn(Cc2ccc3ccccc3c2)c(=O)n1Cc1ccc(-c2ccccc2-c2nn[nH]n2)cc1 | 280 | 6.553 |
| CCCCc1nnc(O)n1Cc1ccc(-c2ccccc2C(=O)O)cc1 | 1500 | 5.824 |
| CCCCc1nn(CC(=O)O)c(=O)n1Cc1ccc(-c2ccccc2-c2nn[nH]n2)cc1 | 91 | 7.041 |
| CCCCc1nn(C(CC(=O)OCC)C(=O)c2ccccc2)c(=O)n1Cc1ccc(-c2ccccc2-c2nn[nH]n2)cc1 (stereo unspecified) | 36 | 7.444 |
| CCCCc1nn(CC(OCCC)c2ccccc2)c(=O)n1Cc1ccc(-c2ccccc2-c2nn[nH]n2)cc1 (stereo unspecified) | 45 | 7.347 |
| CCCCc1nn(CC(O)c2ccccc2)c(=O)n1Cc1ccc(-c2ccccc2-c2nn[nH]n2)cc1 (stereo unspecified) | 3.6 | 8.444 |
| CCCCc1nn(CC(O)c2cc(OC)ccc2OC)c(=O)n1Cc1ccc(-c2ccccc2-c2nn[nH]n2)cc1 (stereo unspecified) | 22 | 7.658 |

| Structure (SMILES) | IC50 [nM] | pIC50 |
| --- | --- | --- |
| CCCCCCCCn1nc(CCCC)n(Cc2ccc(-c3ccccc3-c3nn[nH]n3)cc2)c1=O | 170 | 6.77 |
| CCCCc1nn(CC(OCC(=O)OCC)c2ccccc2)c(=O)n1Cc1ccc(-c2ccccc2-c2nn[nH]n2)cc1 (stereo unspecified) | 180 | 6.745 |
| CCCCc1nn(CCC)c(=O)n1Cc1ccc(-c2ccccc2-c2nn[nH]n2)cc1 | 15 | 7.824 |
| CCCCCCn1nc(CCCC)n(Cc2ccc(-c3ccccc3-c3nn[nH]n3)cc2)c1=O | 8.7 | 8.06 |
| CCCCc1nn(CCc2ccccc2)c(=O)n1Cc1ccc(-c2ccccc2-c2nn[nH]n2)cc1 | 3.1 | 8.509 |
| CCCCc1nn(CC(=O)C23CC4CC(CC(C4)C2)C3)c(=O)n1Cc1ccc(-c2ccccc2-c2nn[nH]n2)cc1 | 25 | 7.602 |
| CCCCc1nn(CC(OCC)c2ccccc2)c(=O)n1Cc1ccc(-c2ccccc2-c2nn[nH]n2)cc1 (stereo unspecified) | 15 | 7.824 |
| CCCCc1nn(C(C)CC)c(=O)n1Cc1ccc(-c2ccccc2-c2nn[nH]n2)cc1 (stereo unspecified) | 10 | 8 |
| CCCCc1nn(CC(=O)OC(C)(C)C)c(=O)n1Cc1ccc(-c2ccccc2-c2nn[nH]n2)cc1 | 16 | 7.796 |
| CCCCc1nn(CCCc2ccccc2)c(=O)n1Cc1ccc(-c2ccccc2-c2nn[nH]n2)cc1 | 18 | 7.745 |
| CCCCCn1nc(CCCC)n(Cc2ccc(-c3ccccc3-c3nn[nH]n3)cc2)c1=O | 5.6 | 8.252 |
| CCCCc1nn(CCCCC(=O)O)c(=O)n1Cc1ccc(-c2ccccc2-c2nn[nH]n2)cc1 | 12 | 7.921 |
| CCCCc1nn(Cc2ccccc2)c(=O)n1Cc1ccc(-c2ccccc2-c2nn[nH]n2)cc1 | 16 | 7.796 |
| CCCCc1nnc(O)n1Cc1ccc(-c2ccccc2-c2nn[nH]n2)cc1 | 42 | 7.377 |
| CCCCc1nn(CC(=O)c2cc(OC)ccc2OC)c(=O)n1Cc1ccc(-c2ccccc2-c2nn[nH]n2)cc1 | 21 | 7.678 |
| CCCCc1nn(CCC(C)CC(C)(C)C)c(=O)n1Cc1ccc(-c2ccccc2-c2nn[nH]n2)cc1 (stereo unspecified) | 35 | 7.456 |
